From patent US20140121278A1, “ANTI-TUMOR AGENT OTX-008 TARGETS HUMAN GALECTIN-1” (REGENTS OF THE UNIVERSITY OF MINNESOTA, priority 2012, published 2014)
Like-named read-outs stand apart in the source and are kept apart here.

Columns and labels:
human galectin-1 (gal-1) = molecular target: T1, human galectin-1 (gal-1) (Homo sapiens, UniProt P09382); assay: 1H-15N HSQC NMR binding of OTX-008 to 15N-labeled gal-1; conditions: total gal-1 monomer 60 μM, pH 7.0, 30° C., HSQC intensity changes averaged over all resonances; read-out: Kd, estimate from mid-point of saturable binding curve (free OTX-008 at 50% intensity change)
T1 construct: made in house; host or cells: E. coli BL21 (DE3)
T1 sequence (P09382 whole entry): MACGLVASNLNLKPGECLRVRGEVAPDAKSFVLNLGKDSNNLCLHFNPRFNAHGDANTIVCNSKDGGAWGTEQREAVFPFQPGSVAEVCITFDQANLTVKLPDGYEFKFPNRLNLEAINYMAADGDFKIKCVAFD
Experimental: Galectin-1 preparation. […] Typically, 44 milligrams of purified protein were obtained from 1 liter of cell culture. The purity of the final sample was quantified by using the Biorad protein assay and was checked for purity by using SDS PAGE. Functional activity of the purified protein was assessed by a T-cell death assay (Nesmelova et al., 2008, Biomol NAR Assignments; 2(2):203-205).
Heteronuclear NMR Spectroscopy. […]
NMR experiments were carried out at 30° C. on a Varian Unity Inova 600-MHz spectrometer equipped with an H/C/N triple-resonance probe and x/y/z triple-axis pulse field gradient unit. […] Raw data were converted and processed by using NMRPipe (Delaglio et al., 1995, J Biomol NMR; 6(3):277-293) and were analyzed by using NMRview (Johnson, 2004, Methods Mol Biol; 278:313-352).
Although an accurate equilibrium ligand dissociation constant, Kd cannot always be determined from data such as these, a plot of OTX-008-induced intensity changes averaged over all resonances vs. the concentration of OTX-008 does yield a saturable binding curve (inset of FIG. 2). […]

[1] = molecular target: T2, gal-1 binding to cell surface glycans on splenocytes (CD4+ and CD8+ leukocytes, CD31+ endothelial cells) (Homo sapiens, UniProt P09382); assay: Flow cytometry: FITC-gal-1 binding to cell surface glycans on splenocytes; type: cell-based, gal-1 null mice; conditions: for inhibition at 20 µM: 20 μM OTX-008, 0.1 μM gal-1; for inhibition at 100 µM: 100 μM OTX-008
T2 construct: made in house; host or cells: E. coli BL21 (DE3) (the only gal-1 preparation described)
T2 sequence (P09382 whole entry): as above
Experimental: FIGS. 6A and 6B depict the results of flow cytometry used to assess the effects of OTX-008 (“0118”) on FITC-gal-1 binding to splenocytes (CD4+ and CD8+ leukocytes and CD31+ endothelial cells). FIG. 6A illustrates the binding of FITC-gal-1 (0.1 μM or 0.2 μM) to these cells as a function of OTX-008 concentration. FIG. 6B illustrates the binding to CD4+ and CD8+ leukocytes and CD31+ endothelial cells derived from male or female gal-1−/− null mice. FITC-Galectin-1 preparation. Gal-1 was conjugated with fluorescein isothiocyanate (FITC) using a FITC:protein molar ratio of 10:1. Gal-1 (2 mg/ml) was dissolved in […] of 20 mM potassium phosphate buffer, pH 7.4, followed by addition of approximately 50 μL FITC (10 mg/ml) that had been dissolved in 0.1 mM sodium bicarbonate. The resulting lower pH (approximately pH 8) ensured selective labeling at the N-terminal amine group of the protein (Hungerford et al., 2007, Photochem Photobiol Sci; 6(2):152-158; and Hermanson, 2008, Bioconjugate Techniques, 2nd ed.; Academic Press: Burlington, Mass. Part 1, 1202 pp). This solution was then mixed thoroughly and incubated at room temperature (22° C.) for 18 hours in the dark. During the course of the reaction, the mixture was gently vortexed 3 or 4 times. The resulting FITC-labeled protein was separated from unbound dye by filtration using an Amicon Ultra cellulose filter (Millipore, 10 kDa cut-off). […] Flow Cytometry. Male and female gal-1 null mice (Jackson Laboratory) were provided water and standard chow ad libitum and were maintained on a 12-hour light/dark cycle prior to experiments that were approved by the University of Minnesota Research Animal Resources Ethical Committee. For FACS experiments, spleens from these mice (6-10 weeks old) were harvested and non-enzymatically disrupted by shear force to yield single-cell suspensions (Dings et al., 2011, Clin Cancer Res; 17(10):3134-3145). Cell suspensions were prepared in Hanks's balanced solution. Red blood cells were lysed in ACK (Lonza Walkersville) for 5 minutes on ice and suspensions were filtered through nylon mesh. Spleen cells were then washed and incubated with monoclonal antibodies as indicated for 40 minutes on ice. After an additional washing step, various concentrations of gal-1 (with or without OTX-008) were added and incubated for 30 minutes on ice. Prior to FACS analysis, cell suspensions were washed once more and analyzed by multi-parameter flow cytometry on a LSR II flow cytometer (BD Biosciences) using Flowjo software (Tree Star, Inc.) (Dings et al., 2011, Clin Cancer Res; 17(10):3134-3145).

Jurkat E6.1 cells = assay: Agglutination assay, gal-1 induced; type: cell-based; conditions: Homo sapiens, 20 μM OTX-008, 1 μM gal-1, 22° C., read-out: inhibition of cell agglutination
Experimental: FIG. 7 depicts Jurkat E6.1 cells agglutination as induced by addition of 1 μM gal-1 and incubated at 22° C. on plastic, round bottom chamber slides (Nunc, Naperville, Ill., USA), in medium alone or in the presence of 20 μM OTX-008 (“0118”).
Agglutination Assay. Jurkat E6.1 cells (2×10^6/200 μL RPMI 1640 medium) agglutination was induced by 1 μM gal-1 and were incubated on plastic round bottom chamber slides (Nunc, Naperville, Ill., USA) in medium alone or with 20 μM OTX-008 at 22° C. Subsequently the cells were analyzed for agglutination with an Axiovert 10 inverted phase microscope equipped with a digital camera system (Zeiss, Germany), and digitally analyzed and differentially quantified by morphometric analysis, as described earlier (Dings et al., 2008, Cancer Lett; 265(2):270-280; and Dings et al., 2010, Bioconjugate Chem; 21(1):20-27).

human cancer cell lines = assay: Cell viability assay (MTT); type: cell-based; conditions: 72 h drug exposure, 48 h wash-out
Text: FIGS. 8A-8C illustrate the concentration of OTX-008 (“0118”) required for inhibiting cell viability is proportional to Gal-1 expression. FIG. 8A illustrates the anti-viability effects (expressed as % change in cell numbers over time) of OTX-008 using the MTT assay in human cancer cell lines. FIG. 8B illustrates cancer cells that are sensitive to OTX-008 expressed […] galectin-1 protein expression as determined using Western Blot analysis. FIG. 8C illustrates that concentration of OTX-008, as established by plotting the IC50 in cancer cells, is proportional to their relative LGALS1 mRNA expression as assessed by qRT-PCR.
Cell lines. HEP2, SQ20B, HT29, DU145, and SKHEP1 cells were obtained from the ATCC (Rockville, Md., USA). COL0205-S cells were obtained from the National Cancer Institute collection. […]
Cell viability assay. Cell viability (i.e. cell proliferation and/or cytotoxicity) was determined using the MTT assay (3-[4,5-dimethylthiazol-2-yl]-2,5-diphenyltetrazolium bromide; Sigma, Saint-Quentin Fallavier, France). […] After incubation, the supernatant was discarded, insoluble formazan precipitates were dissolved in 0.1 mL of DMSO and the absorbance was measured at 560 nm by use of a microplate reader (Thermo, France). […] IC50 was determined as half the maximal inhibitory drug concentration for each cell line.

[2] = Phase I clinical trial with terminal cancer patients; type: in vivo, human; conditions: preliminary, daily subcutaneous injection, 1 mg/Kg
Text: In an embodiment, OTX-008 is a therapeutic agent for use against cancer. As a therapeutic agent, calixarene OTX-008 is a significant improvement over both Anginex and 6DBF7, as well as over any carbohydrate-based compound, for multiple reasons. OTX-008 (937 Da) approaches the generally accepted definition of a “small molecule” (i.e. <500 Da). OTX-008 should have better in vivo exposure, because it is non-peptidic and non-carbohydrate, and therefore is non-hydrolyzable. Moreover, because of its aryl-crown structure, OTX-008 should be chemically stable and less likely to be metabolized in vivo than any peptide or carbohydrate-based compound. […] In an embodiment, OTX-008 is a promising anti-tumor agent that targets galectin-1 as a first-in-class therapeutic agent.

[3] = read-out: inhibition of gal-1 binding to CD4+ (or CD8+) cells
[4] = read-out: inhibition of gal-1 binding to CD31+ cells

CN(C)CCNC(=O)COc1c2cccc1Cc1cccc(c1OCC(=O)NCCN(C)C)Cc1cccc(c1OCC(=O)NCCN(C)C)Cc1cccc(c1OCC(=O)NCCN(C)C)C2 [OTX-008]
Kd (human galectin-1 (gal-1)): ~30 µM | inhibition at 20 µM [1, 3]: ~80% | inhibition at 20 µM [1, 4]: ~50% | inhibition at 100 µM [1, 3]: 100% | inhibition at 100 µM [1, 4]: ~70% | inhibition at 20 µM (Jurkat E6.1 cells): ~80% | inhibition of cell viability on several cell types in culture (human cancer cell lines): dose-dependent | half-life ([2]; human, in vivo, sc): ~48 h | disease state [2]: apparent stabilization of disease state | toxicity [2]: absence of toxicity
